Data: US11512097B2, “Heterocyclic compounds as Delta-5 desaturase inhibitors and methods of use” (Amgen Inc., priority 2019, dated 2022)

target: T1, Delta-5-Desaturase (D5D), membrane preparations of D5D-overexpressing HEK293 6E cells (Homo sapiens, UniProt O60427); experiment: In vitro measurement of Delta-5-Desaturase inhibitory activity using DGLA-CoA and Arachidonyl-CoA mass spectrometric assays; assay type: biochemical; settings: D5D membrane 10 μg/mL, one-hour incubation, average of at least two independent runs
T1 construct: expressed in transfected cells; host or cells: HEK293 6E cells (membrane preparation)
T1 sequence (O60427 whole entry, species assumed): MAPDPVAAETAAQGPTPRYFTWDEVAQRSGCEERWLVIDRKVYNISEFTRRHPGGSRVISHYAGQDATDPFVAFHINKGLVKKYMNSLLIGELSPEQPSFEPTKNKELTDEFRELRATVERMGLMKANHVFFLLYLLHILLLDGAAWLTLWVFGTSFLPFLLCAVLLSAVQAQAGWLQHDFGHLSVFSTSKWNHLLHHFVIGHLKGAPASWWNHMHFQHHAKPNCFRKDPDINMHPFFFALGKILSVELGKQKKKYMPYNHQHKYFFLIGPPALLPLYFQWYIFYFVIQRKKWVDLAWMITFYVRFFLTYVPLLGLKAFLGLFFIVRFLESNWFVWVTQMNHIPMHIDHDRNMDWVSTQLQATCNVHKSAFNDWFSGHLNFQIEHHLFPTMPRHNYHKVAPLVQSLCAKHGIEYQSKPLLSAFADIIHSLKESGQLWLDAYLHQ
Procedure: In Vitro Measurement of Delta-5-Desaturase Inhibitory Activity Using DGLA-CoA and Arachidonyl-CoA Mass Spectrometric Assays Membrane preparations of D5D-overexpressing HEK293 6E cells were prepared in which the total protein concentration was 5.6 mg/mL. Stock D5D membrane preparations were diluted in D5D assay buffer (25 mM 2-amino-2-(hydroxymethyl)-1,3-propanediol, pH 7.5 containing 10 mM MgCl2, 1 mM octyl glucoside (SigmaAldrich O-8001), 1 mM tris(2-carboxyethyl)phosphine hydrochloride (SigmaAldrich 646547)) to a final D5D membrane concentration of 10 μg/mL in an assay plate containing serially diluted test compounds. To 15 μL of this D5D preparation was added 15 μL of a substrate solution (0.25 mM NADH (nicotinamide adenine dinucleotide, Roche Diag. 10107735001), 0.25 mM adenosine triphosphate (SigmaAldrich A-3377), 0.05 mM coenzyme A hydrate (SigmaAldrich C-4282), and 0.01 mM DGLA (dihomo-g-linolenic acid, Sigma E-4504) in the same D5D assay buffer. After one-hour incubation at ambient temperature acetonitrile (30 μL) was added to quench the reaction and plates were centrifuged for 10 min @ 3,000 rpm. Mass spectrometric analysis involved a Rapidfire 360 SPE system coupled to an ABSciex API4000 Triple Quadrupole mass spectrometer using a C18 SPE cartridge (G9203-80105) with ionization in negative mode (solvent A=100% water; solvent B=100% acetonitrile, each solvent containing 5 mM ammonium acetate). DGLA-CoA and Arachidonyl-CoA were detected by multiple reaction monitoring (MRM) of the doubly charged parent ions at m/z 526.6 and 525.6, respectively. […] Sx is value from unknown sample, So is value from DMSO alone and Sc is value from no enzyme well. For CRC analysis, the % of inhibitions were analysed with 4 Parameter Logistic Model or Sigmoidal Dose-Response Model using XLfit (IDBS, Guilford, UK). The potency of the test item was expressed as IC50 nM, corresponding to the test item concentration able to inhibit the 50% of the enzyme maximal response. IC50 values were averaged values determined by at least two independent runs. The results presented in Table 15 have been generated with the in vitro assay described above. This assay may be used to test any of the compounds described herein to assess and characterize a compound's ability to inhibit D5D.

SMILES	IC50
Cc1nn2c(=O)c(-c3cnn(C[C@H]4CC4(F)F)c3)c(C(F)(F)F)nc2s1 (single isomer, unassigned) [Example 111]	0.452 µM
Cc1nn2c(=O)c(-c3cnn(C[C@@H]4CC4(F)F)c3)c(C(F)(F)F)nc2s1 (single isomer, unassigned) [Example 112]	0.861 µM
C[C@@H]1Cn2c(nc(C(F)(F)F)c(-c3cnn(CC(F)(F)C(F)(F)F)c3)c2=O)S1 (single isomer, unassigned) [Example 114]	0.0494 µM
Cc1cn2c(=O)c(-c3cnn(CCC(F)(F)F)c3)c(C(F)(F)F)nc2n1C[C@@H]1CC1(F)F (single isomer, unassigned) [Example 115]	0.039 µM
Cc1cn2c(=O)c(-c3cnn(CCC(F)(F)F)c3)c(C(F)(F)F)nc2n1C[C@H]1CC1(F)F (single isomer, unassigned) [Example 116]	1.17 µM
Cc1csc2nc(C(F)(F)F)c(-c3cnn(CC(F)(F)C(F)(F)F)c3)c(=O)n12 [Example 5, 3-methyl-6-[1-(2,2,3,3,3-pentafluoropropyl)-1H-pyrazol-4-yl]-7-(trifluoromethyl)-5H-[1,3]thiazolo[3,2-a]pyrimidin-5-one]	0.482 µM
O=c1c(-c2cnn(CC(F)(F)C(F)(F)F)c2)c(C(F)(F)F)nc2scc(C(F)(F)F)n12 [Example 6, 6-[1-(2,2,3,3,3-pentafluoropropyl)-1H-pyrazol-4-yl]-3,7-bis(trifluoromethyl)-5H-[1,3]thiazolo[3,2-a]pyrimidin-5-one]	0.271 µM
O=c1c(-c2cnn(CC(F)(F)C(F)(F)F)c2)c(C(F)(F)F)nc2sc(C3CC3)nn12 [Example 11, 2-cyclopropyl-6-[1-(2,2,3,3,3-pentafluoropropyl)-1H-pyrazol-4-yl]-7-(trifluoromethyl)-5H-[1,3,4]thiadiazolo[3,2-a]pyrimidin-5-one]	0.133 µM
O=c1c(-c2cnn(CCC(F)(F)F)c2)c(C(F)(F)F)nc2sc(C3CC3)nn12 [Example 12, 2-cyclopropyl-7-(trifluoromethyl)-6-[1-(3,3,3-trifluoropropyl)-1H-pyrazol-4-yl]-5H-[1,3,4]thiadiazolo[3,2-a]pyrimidin-5-one]	0.248 µM
Cc1nn2c(=O)c(-c3cnn(CC(F)(F)C(F)(F)F)c3)c(C(F)(F)F)nc2n1C [Example 13, 2,3-dimethyl-6-[1-(2,2,3,3,3-pentafluoropropyl)-1H-pyrazol-4-yl]-5-(trifluoromethyl)-3H,7H-[1,2,4]triazolo[1,5-a]pyrimidin-7-one]	0.249 µM
Cc1nn2c(=O)c(-c3cnn(CCC(F)(F)F)c3)c(C(F)(F)F)nc2n1C [Example 14, 2,3-dimethyl-5-(trifluoromethyl)-6-[1-(3,3,3-trifluoropropyl)-1H-pyrazol-4-yl]-3H,7H-[1,2,4]triazolo[1,5-a]pyrimidin-7-one]	1.43 µM
CCc1nc2sc(C)nn2c(=O)c1-c1cnn(CC(F)(F)C(F)(F)F)c1 [Example 15, 7-ethyl-2-methyl-6-[1-(2,2,3,3,3-pentafluoropropyl)-1H-pyrazol-4-yl]-5H-[1,3,4]thiadiazolo[3,2-a]pyrimidin-5-one]	1.51 µM
Cc1cc2nc(C(F)(F)F)c(-c3cnn(CC(F)(F)C(F)(F)F)c3)c(=O)n2n1C [Example 16, 1,2-dimethyl-6-[1-(2,2,3,3,3-pentafluoropropyl)-1H-pyrazol-4-yl]-5-(trifluoromethyl)-1H,7H-pyrazolo[1,5-a]pyrimidin-7-one]	9.41 µM
Cn1ccc2nc(C(F)(F)F)c(-c3cnn(CC(F)(F)C(F)(F)F)c3)c(=O)n21 [Example 17, 1-methyl-6-[1-(2,2,3,3,3-pentafluoropropyl)-1H-pyrazol-4-yl]-5-(trifluoromethyl)-1H,7H-pyrazolo[1,5-a]pyrimidin-7-one]	0.363 µM
Cc1cn(C)n2c(=O)c(-c3cnn(CC(F)(F)C(F)(F)F)c3)c(C(F)(F)F)nc12 [Example 18, 1,3-dimethyl-6-[1-(2,2,3,3,3-pentafluoropropyl)-1H-pyrazol-4-yl]-5-(trifluoromethyl)-1H,7H-pyrazolo[1,5-a]pyrimidin-7-one]	3.63 µM
O=c1c(-c2cnn(CC(F)(F)C(F)(F)F)c2)c(C(F)(F)F)nc2n1CCC2 [Example 19, 3-[1-(2,2,3,3,3-pentafluoropropyl)-1H-pyrazol-4-yl]-2-(trifluoromethyl)-4H,6H,7H,8H-pyrrolo[1,2-a]pyrimidin-4-one]	0.0463 µM
O=c1c(-c2cnn(CCC(F)(F)F)c2)c(C(F)(F)F)nc2n1CCC2 [Example 21, 2-(trifluoromethyl)-3-[1-(3,3,3-trifluoropropyl)-1H-pyrazol-4-yl]-4H,6H,7H,8H-pyrrolo[1,2-a]pyrimidin-4-one]	0.235 µM

These reach a lower IC50. Values come first.

IC50	SMILES
0.026 µM	Cc1cn2c(=O)c(-c3cnn(CC4CC4(F)F)c3)c(C(F)(F)F)nc2[nH]1 (racemic) [Example 76, 6-{1-[(2,2-difluorocyclopropyl)methyl]-1H-pyrazol-4-yl}-2-methyl-7-(trifluoromethyl)-1H,5H-imidazo[1,2-a]pyrimidin-5-one]
0.0125 µM	Cc1cn2c(=O)c(-c3cnn(C[C@H]4CC4(F)F)c3)c(C(F)(F)F)nc2[nH]1 (single isomer, unassigned) [Example 107]
0.012 µM	Cc1cn2c(=O)c(-c3cnn(C[C@@H]4CC4(F)F)c3)c(C(F)(F)F)nc2[nH]1 (single isomer, unassigned) [Example 108]
0.0286 µM	Cc1cn2c(=O)c(-c3cnn(C[C@H]4CC4(F)F)c3)c(C(F)(F)F)nc2n1C (single isomer, unassigned) [Example 109]
0.0241 µM	Cc1cn2c(=O)c(-c3cnn(C[C@@H]4CC4(F)F)c3)c(C(F)(F)F)nc2n1C (single isomer, unassigned) [Example 110]
0.0118 µM	C[C@H]1Cn2c(nc(C(F)(F)F)c(-c3cnn(CC(F)(F)C(F)(F)F)c3)c2=O)S1 (single isomer, unassigned) [Example 113]
0.0038 µM	O=c1c(-c2cnn(CC(F)(F)C(F)(F)F)c2)c(C(F)(F)F)nc2sccn12 [Example 1, 6-[1-(2,2,3,3,3-pentafluoropropyl)-1H-pyrazol-4-yl]-7-(trifluoromethyl)-5H-[1,3]thiazolo[3,2-a]pyrimidin-5-one]
0.0257 µM	CN1C(=O)Cn2c1nc(C(F)(F)F)c(-c1cnn(CC(F)(F)C(F)(F)F)c1)c2=O [Example 3, 1-methyl-6-[1-(2,2,3,3,3-pentafluoropropyl)-1H-pyrazol-4-yl]-7-(trifluoromethyl)-1H,2H,3H,5H-imidazo[1,2-a]pyrimidine-2,5-dione]
0.0178 µM	Cc1cn2c(=O)c(-c3cnn(CC(F)(F)C(F)(F)F)c3)c(C(F)(F)F)nc2s1 [Example 4, 2-methyl-6-[1-(2,2,3,3,3-pentafluoropropyl)-1H-pyrazol-4-yl]-7-(trifluoromethyl)-5H-[1,3]thiazolo[3,2-a]pyrimidin-5-one]
0.0013 µM	O=c1c(-c2cnn(CC(F)(F)C(F)(F)F)c2)c(C(F)(F)F)nc2sc(F)cn12 [Example 7, 2-fluoro-6-[1-(2,2,3,3,3-pentafluoropropyl)-1H-pyrazol-4-yl]-7-(trifluoromethyl)-5H-[1,3]thiazolo[3,2-a]pyrimidin-5-one]
0.0046 µM	O=c1c(-c2cnn(CCC(F)(F)F)c2)c(C(F)(F)F)nc2sccn12 [Example 8, 7-(trifluoromethyl)-6-[1-(3,3,3-trifluoropropyl)-1H-pyrazol-4-yl]-5H-[1,3]thiazolo[3,2-a]pyrimidin-5-one]
0.0064 µM	O=c1c(-c2cnn(CC(F)(F)C(F)(F)F)c2)c(C(F)(F)F)nc2sc(Cl)cn12 [Example 9, 2-chloro-6-[1-(2,2,3,3,3-pentafluoropropyl)-1H-pyrazol-4-yl]-7-(trifluoromethyl)-5H-[1,3]thiazolo[3,2-a]pyrimidin-5-one]
0.0274 µM	COCc1nn2c(=O)c(-c3cnn(CCC(F)(F)F)c3)c(C(F)(F)F)nc2s1 [Example 10, 2-(methoxymethyl)-7-(trifluoromethyl)-6-[1-(3,3,3-trifluoropropyl)-1H-pyrazol-4-yl]-5H-[1,3,4]thiadiazolo[3,2-a]pyrimidin-5-one]
0.0329 µM	Cc1nn2c(=O)c(-c3cnn(CCC(F)(F)F)c3)c(C(F)(F)F)nc2s1 [Example 20, 2-methyl-7-(trifluoromethyl)-6-[1-(3,3,3-trifluoropropyl)-1H-pyrazol-4-yl]-5H-[1,3,4]thiadiazolo[3,2-a]pyrimidin-5-one]
0.0143 µM	O=c1c(-c2cnn(CC(F)(F)C(F)(F)F)c2)c(C(F)(F)F)nc2n1CCS2 [Example 22, 6-[1-(2,2,3,3,3-pentafluoropropyl)-1H-pyrazol-4-yl]-7-(trifluoromethyl)-2H,3H,5H-[1,3]thiazolo[3,2-a]pyrimidin-5-one]
